Source: US9220261B1, “Volatile blends and the effects thereof on the navel orangeworm moth” (The United States of America, as represented by the …, priority 2010, dated 2015)

Experiments:
female NOW antennae = experiment: Electroantennogram (EAG) bioassay, female NOW antennae; parameters: species or system Amyelois transitella; settings: Example 1; 50 μg on disc (almond meal 3.1 mg); raw response minus NegCtrl
Method: The EAG experiments were performed by similar protocols described previously (Beck et al., 2009, supra). The antennae of sexed NOW were excised, positioned on a fork electrode using electrode gel, and connected to an IDAC-4 acquisition controller and electrophysiological amplifier using PC-based software (Syntech, Kirchzarten, Germany). The antennae were humidified with a stream of purified air bubbled through distilled water at a flow rate of 200 ml/min. The individual compounds for EAG analysis (50 μg; 10 μl of a 5 μg/μl solution in pentane) were loaded onto oven-dried 0.64 cm assay discs, allowed to air-dry for five min, inserted into 14.6 cm Pasteur pipets and the ends temporarily capped with parafilm. […] For almond meal analyses, 3.1 mg was placed in a Pasteur pipet containing very lightly packed glass wool. Negative control ([…]) discs were prepared using a similar method, but with 10 μl of pentane prior to solvent evaporation. Positive control (PosCtrl) discs were prepared using the major sex pheromone component (Z,Z)-11,13-hexadecadienal (50 μg, Suterra LLC, Bend, Oreg.). The pipets loaded with the individual compounds were attached via tubing to a stimulus controller unit (Syntech). The antennae were exposed to each compound by a two-second puff of air and the resulting response recorded. […]

NOW [1] = experiment: Field trapping screening studies of individual CONO; assay type: in vivo, Amyelois transitella; settings: September 2 to Oct. 5, 2009, almond and pistachio orchards
From the text: FAB.x and GAVA.x blends were mixed with another component, conophthorin (CONO). CONO increased the efficacy of the blends in the FAB4 and GAVA series. This was somewhat unexpected as CONO alone is not attractive to NOW. […] Subsequent field trapping screening studies of individual CONO between September 2 and Oct. […] Virgin female NOW-baited traps at the same time indicated pressures of NOW in the orchards.

NOW [2] = experiment: Electroantennographic studies of CONO; parameters: species or system Amyelois transitella; settings: lower than the positive standard

SMILES	EAG antennal response from female NOW, normalized (female NOW antennae) [μV]	attraction of NOW in field trapping (NOW [1])	electroantennographic activity (NOW [2])
CC(=O)c1ccccc1 [acetophenone]	397		
Oc1ccccc1 [phenol]	78		
C[C@@H]1CCC[C@@]2(CCCO2)O1 [CONO, 7-methyl-1,6-dioxaspiro[4.5]decane]		did not attract any NOW	mildly active
